Key:
[1] = test system: rheumatoid arthritis; conditions: cited from earlier work
[2] = test system: MAIT cells; test: mBSA-induced arthritis in wild type mice treated with Ac6FP or PBS; format: in vivo; conditions: wild type male mice, intraperitoneal twice a week
Description: Arthritis was induced by intra-articular injection of methylated bovine serum albumin (mBSA) in MR1^−/− (depleted in MAIT cells) and wild type C57BL/6 mice, previously immunized with mBSA. We included 9 mice in each group, only females, which were 6 to 8 weeks old. Mice were daily evaluated for signs of joint inflammation, assessed by measuring tarsal thickness and scored on a scale of 0-4, where 0=no change, 1=local swelling and redness of digits, 2=mild swelling and redness, 3=severe swelling and redness, 4=necrosis. Mice were sacrificed on day 8, and the paws were separated, fixed with 4% paraformaldehyde and decalcified for histopathological assessment. All mice developed arthritis, with a peak of inflammation at day 1.
Arthritis was induced by intra-articular injection of methylated bovine serum albumin (mBSA) in wild type mice, treated with Acetyl-6-formylpterin (Ac6FP), a non-activating ligand of MAIT cells or PBS, previously immunized with mBSA. Ac6FP or PBS were injected twice a week in intraperitoneal. We included 6 wild type mice in each group, only males, which were 8 weeks old. Mice were daily evaluated as described previously. All mice developed arthritis, with a peak of inflammation at day 1.
Values are the mean+/−SEM of 6 mice in each group. Test: Student T test. Ac6FP: Acetyl-6-formylpterin. AUC: Area Under Curve. […]

SMILES | patients reaching remission states ([1]; RA patients at 6-12 months) | patients reaching low disease activity states ([1]; early RA patients, with or without corticosteroids) | clinical score (scale 0-4) compared to PBS group ([2]; daily evaluation) | area under curve (AUC) of clinical score, median ([2]; n=6, vs. 5.5 in PBS group, p=0.07)
CN(Cc1cnc2nc(N)nc(N)c2n1)c1ccc(C(=O)N[C@@H](CCC(=O)O)C(=O)O)cc1 [MTX, methotrexate] | 10-20% | 25-50% |  | 
CC(=O)Nc1nc2ncc(C=O)nc2c(=O)[nH]1 [Ac6FP, Acetyl-6-formylpterin] |  |  | lower clinical score | 3

— patent US20260069594A1, “USE OF AN AGENT CAPABLE OF INHIBITING THE ACTIVATION OF MAIT CELLS FOR THE TREATMENT OF RHEUMATOID ARTHRITIS” (INSTITUT NATIONAL DE LA SANTÉ ET DE LA RECHERCHE MÉDICALE, priority 2022, published 2026)
